From patent publication US20130137772A1, “HYDROXYPOLYAMINE SALTS” (priority 2011, published 2013)
Several values for one entry are separate records, joined by “and”; a condition that tells them apart may be missing. Identical values can stand only once. Values belong to the compound of their own block, whether it stands above or below them.

Experiment: Tissue distribution and metabolism: polyamine content of kidney, liver and pancreas via HPLC
Format: in vivo, Female CD-1 mice
Description: The tissue distribution and metabolism of DEHSPM, (HO)2DEHSPM HCl Salt and (HO)2DEHSPM Mesylate Salt in various organs were evaluated utilizing the following protocol:
Tissue Distribution and Metabolism of DEHSPM, (HO)2DEHSPM HCl Salt and (HO)2DEHSPM Mesylate Salt
• 1) DEHSPM, (HO)2DEHSPM HCl salt, and (HO)2DEHSPM mesylate salt were dissolved in sterile normal saline; the pH was not adjusted. • 2) Female CD-1 mice were given the drugs at equimolar dosages intraperitoneally once daily for 5 days. • 3) The animals, n=3-4 per group, were euthanized 4, 8, or 24 h post-last dose. • 4) The kidney, liver, and pancreas were removed and assessed for their polyamine content via HPLC analysis. • 5) The polyamine concentration data (mean±STD) are expressed as nmol/g wet weight of tissue. SPM, spermine; SPD, spermidine; PUT, putrescine; N.D., not determined. • 6) A one-tailed t test assuming unequal variance was performed on the tissue polyamine concentration data. A value of p<0.05 was considered significant.

[1] = kidney, 4 h post-last dose, HCl salt 20 mg/kg/d IP x 5 d
[2] = kidney, 8 h post-last dose, HCl salt 20 mg/kg/d IP x 5 d
[3] = kidney, 24 h post-last dose, HCl salt 20 mg/kg/d IP x 5 d
[4] = liver, 4 h post-last dose, HCl salt 20 mg/kg/d IP x 5 d
[5] = liver, 8 h post-last dose, HCl salt 20 mg/kg/d IP x 5 d
[6] = liver, 24 h post-last dose, HCl salt 20 mg/kg/d IP x 5 d
[7] = liver, 24 h post-last dose, HCl salt 20 mg/kg/d IP x 5 d, listed as (HO)2DEHSPM•4HCl Salt
[8] = pancreas, 4 h post-last dose, HCl salt 20 mg/kg/d IP x 5 d
[9] = pancreas, 8 h post-last dose, HCl salt 20 mg/kg/d IP x 5 d
[10] = pancreas, 24 h post-last dose, HCl salt 20 mg/kg/d IP x 5 d
[11] = kidney, 4 h post-last dose, mesylate salt 30.3 mg/kg/d IP x 5 d
[12] = kidney, 8 h post-last dose, mesylate salt 30.3 mg/kg/d IP x 5 d
[13] = kidney, 24 h post-last dose, mesylate salt 30.3 mg/kg/d IP x 5 d
[14] = liver, 4 h post-last dose, mesylate salt 30.3 mg/kg/d IP x 5 d
[15] = liver, 8 h post-last dose, mesylate salt 30.3 mg/kg/d IP x 5 d
[16] = liver, 24 h post-last dose, mesylate salt 30.3 mg/kg/d IP x 5 d
[17] = pancreas, 4 h post-last dose, mesylate salt 30.3 mg/kg/d IP x 5 d
[18] = pancreas, 8 h post-last dose, mesylate salt 30.3 mg/kg/d IP x 5 d
[19] = pancreas, 24 h post-last dose, mesylate salt 30.3 mg/kg/d IP x 5 d

(HO)2DEHSPM 4HCl Salt concentration [1]: 852 ± 202 nmol/g wet weight of tissue | (HO)2HSPM concentration [1]: 50 ± 19 nmol/g wet weight of tissue | (HO)2DEHSPM 4HCl Salt concentration [2]: 871 ± 85 nmol/g wet weight of tissue | (HO)2HSPM concentration [2]: 70 ± 6 nmol/g wet weight of tissue | (HO)2DEHSPM 4HCl Salt concentration [3]: 618 ± 82 nmol/g wet weight of tissue | (HO)2HSPM concentration [3]: 76 ± 7 nmol/g wet weight of tissue | (HO)2DEHSPM 4HCl Salt concentration [4]: 248 ± 17 nmol/g wet weight of tissue | (HO)2HSPM concentration [4]: 70 ± 5 nmol/g wet weight of tissue | (HO)2DEHSPM 4HCl Salt concentration [5]: 228 ± 55 nmol/g wet weight of tissue | (HO)2HSPM concentration [5]: 103 ± 14 nmol/g wet weight of tissue | (HO)2DEHSPM 4HCl Salt concentration [6]: 136 ±50 nmol/g wet weight of tissue | (HO)2HSPM concentration [6]: 102 ± 13 nmol/g wet weight of tissue | (HO)2DEHSPM 4HCl Salt concentration [7]: 136 ± 50 nmol/g wet weight of tissue | (HO)2DEHSPM 4HCl Salt concentration [8]: 217 ± 27 nmol/g wet weight of tissue | (HO)2HSPM concentration [8]: 56 ± 11 nmol/g wet weight of tissue | (HO)2DEHSPM 4HCl Salt concentration [9]: 223 ± 54 nmol/g wet weight of tissue | (HO)2HSPM concentration [9]: 60 ± 9 nmol/g wet weight of tissue | (HO)2DEHSPM 4HCl Salt concentration [10]: 209 ± 37 nmol/g wet weight of tissue | (HO)2HSPM concentration [10]: 58 ± 14 nmol/g wet weight of tissue
Compound: CCNCCC(O)CNCCCCNCC(O)CCNCC.Cl.Cl.Cl.Cl (stereo not shown) [(HO)2DEHSPM HCl Salt]
PUT concentration [1]: 31 ± 27 nmol/g wet weight of tissue | SPD concentration [1]: 327 ± 86 nmol/g wet weight of tissue | SPM concentration [1]: 544 nmol/g wet weight of tissue | SPM concentration (kidney, 4 h post-last dose, HCl salt 20 mg/kg/d IP x 5 d, listed as (HO)2DEHSPM•4HCl Salt): 544 ± 14 nmol/g wet weight of tissue | PUT concentration [2]: 29 ± 5 nmol/g wet weight of tissue | SPD concentration [2]: 275 ± 16 nmol/g wet weight of tissue | SPM concentration [2]: 641 nmol/g wet weight of tissue | SPM concentration (kidney, 8 h post-last dose, HCl salt 20 mg/kg/d IP x 5 d, listed as (HO)2DEHSPM•4HCl Salt): 641 ± 33 nmol/g wet weight of tissue | PUT concentration [3]: 28 ± 6 nmol/g wet weight of tissue | SPD concentration [3]: 304 ± 30 nmol/g wet weight of tissue | SPM concentration [3]: 588 nmol/g wet weight of tissue | SPM concentration (kidney, 24 h post-last dose, HCl salt 20 mg/kg/d IP x 5 d, listed as (HO)2DEHSPM•4HCl Salt): 588 ± 5 nmol/g wet weight of tissue | PUT concentration [4]: 0 ± 0 nmol/g wet weight of tissue | SPD concentration [4]: 1050 ± 9 nmol/g wet weight of tissue | SPM concentration [4]: 875 nmol/g wet weight of tissue | SPM concentration (liver, 4 h post-last dose, HCl salt 20 mg/kg/d IP x 5 d, listed as (HO)2DEHSPM•4HCl Salt): 875 ± 128 nmol/g wet weight of tissue | PUT concentration [5]: 20 ± 17 nmol/g wet weight of tissue | SPD concentration [5]: 1175 ± 190 nmol/g wet weight of tissue | SPM concentration [5]: 1071 nmol/g wet weight of tissue | SPM concentration (liver, 8 h post-last dose, HCl salt 20 mg/kg/d IP x 5 d, listed as (HO)2DEHSPM•4HCl Salt): 1071 ± 7 nmol/g wet weight of tissue | PUT concentration [6]: 7 ± 14 nmol/g wet weight of tissue | SPD concentration [6]: 884 ± 156 nmol/g wet weight of tissue | SPM concentration [6]: 837 nmol/g wet weight of tissue | SPM concentration [7]: 837 ± 13 nmol/g wet weight of tissue | PUT concentration [8]: 32 ± 3 nmol/g wet weight of tissue | SPD concentration [8]: 5868 ± 505 nmol/g wet weight of tissue | SPM concentration [8]: 1153 nmol/g wet weight of tissue and 1153 ± 159 nmol/g wet weight of tissue | PUT concentration [9]: 50 ± 7 nmol/g wet weight of tissue | SPD concentration [9]: 6343 ± 596 nmol/g wet weight of tissue | SPM concentration [9]: 1476 nmol/g wet weight of tissue and 1476 ± 101 nmol/g wet weight of tissue | PUT concentration [10]: 36 ± 5 nmol/g wet weight of tissue | SPD concentration [10]: 6386 ± 309 nmol/g wet weight of tissue | SPM concentration [10]: 1177 nmol/g wet weight of tissue and 1177 ± 161 nmol/g wet weight of tissue

(HO)2DEHSPM Mesylate concentration [11]: 541 ± 65 nmol/g wet weight of tissue | (HO)2HSPM concentration [11]: 77 ± 6 nmol/g wet weight of tissue | (HO)2DEHSPM Mesylate concentration [12]: 533 ± 84 nmol/g wet weight of tissue | (HO)2HSPM concentration [12]: 89 ± 14 nmol/g wet weight of tissue | (HO)2DEHSPM Mesylate concentration [13]: 360 ± 43 nmol/g wet weight of tissue | (HO)2HSPM concentration [13]: 97 ± 5 nmol/g wet weight of tissue | (HO)2DEHSPM Mesylate concentration [14]: 168 ± 32 nmol/g wet weight of tissue | (HO)2HSPM concentration [14]: 79 ± 7 nmol/g wet weight of tissue | (HO)2DEHSPM Mesylate concentration [15]: 135 ± 3 nmol/g wet weight of tissue | (HO)2HSPM concentration [15]: 116 ± 15 nmol/g wet weight of tissue | (HO)2DEHSPM Mesylate concentration [16]: 73 ± 11 nmol/g wet weight of tissue | (HO)2HSPM concentration [16]: 88 ± 5 nmol/g wet weight of tissue | (HO)2DEHSPM Mesylate concentration [17]: 131 ± 27 nmol/g wet weight of tissue | (HO)2HSPM concentration [17]: 50 ± 6 nmol/g wet weight of tissue | (HO)2DEHSPM Mesylate concentration [18]: 153 ± 11 nmol/g wet weight of tissue | (HO)2HSPM concentration [18]: 70 ± 2 nmol/g wet weight of tissue | (HO)2DEHSPM Mesylate concentration [19]: 134 ± 14 nmol/g wet weight of tissue | (HO)2HSPM concentration [19]: 75 ± 4 nmol/g wet weight of tissue
Compound: CCNCCC(O)CNCCCCNCC(O)CCNCC.CS(=O)(=O)O.CS(=O)(=O)O.CS(=O)(=O)O.CS(=O)(=O)O (stereo not shown) [(HO)2DEHSPM Mesylate Salt]
PUT concentration [11]: 7 ± 12 nmol/g wet weight of tissue | SPD concentration [11]: 404 ± 24 nmol/g wet weight of tissue | SPM concentration [11]: 680 nmol/g wet weight of tissue and 680 ± 15 nmol/g wet weight of tissue | PUT concentration [12]: 0 ± 0 nmol/g wet weight of tissue | SPD concentration [12]: 265 ± 5 nmol/g wet weight of tissue | SPM concentration [12]: 655 nmol/g wet weight of tissue and 655 ± 41 nmol/g wet weight of tissue | PUT concentration [13]: 26 ± 5 nmol/g wet weight of tissue | SPD concentration [13]: 239 ± 9 nmol/g wet weight of tissue | SPM concentration [13]: 601 nmol/g wet weight of tissue and 601 ± 29 nmol/g wet weight of tissue | PUT concentration [14]: 0 ± 0 nmol/g wet weight of tissue | SPD concentration [14]: 1044 ± 177 nmol/g wet weight of tissue | SPM concentration [14]: 908 nmol/g wet weight of tissue and 908 ± 55 nmol/g wet weight of tissue | PUT concentration [15]: 0 ± 0 nmol/g wet weight of tissue | SPD concentration [15]: 1108 ± 146 nmol/g wet weight of tissue | SPM concentration [15]: 987 nmol/g wet weight of tissue and 987 ± 49 nmol/g wet weight of tissue | PUT concentration [16]: 0 ± 0 nmol/g wet weight of tissue | SPD concentration [16]: 910 ±10 nmol/g wet weight of tissue | SPM concentration [16]: 807 nmol/g wet weight of tissue and 807 ± 138 nmol/g wet weight of tissue | PUT concentration [17]: 36 ± 10 nmol/g wet weight of tissue | SPD concentration [17]: 5717 ± 426 nmol/g wet weight of tissue | SPM concentration [17]: 1108 nmol/g wet weight of tissue and 1108 ± 15 nmol/g wet weight of tissue | PUT concentration [18]: 57 ± 15 nmol/g wet weight of tissue | SPD concentration [18]: 6460 ± 280 nmol/g wet weight of tissue | SPM concentration [18]: 1333 nmol/g wet weight of tissue and 1333 ± 103 nmol/g wet weight of tissue | PUT concentration [19]: 31 ± 3 nmol/g wet weight of tissue | SPD concentration [19]: 6147 ± 223 nmol/g wet weight of tissue | SPM concentration [19]: 1273 ± 210 nmol/g wet weight of tissue
